In patent EP4818168A1, “FUSED RING COMPOUND, PHARMACEUTICAL COMPOSITION THEREOF AND USE THEREOF” (priority 2023, dated 2025):
Where two headings read alike, the source gives them in different places.

What was measured:
[1] = system: H82 cells; assay: cells; type: cell-based; details: Homo sapiens
In short: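 After 6 days' compound treatment at 37 °C (final DMSO 0.1%, RPMI1640/10% FBS), viable H82 cells were quantified by ATP-dependent CellTiter-Glo luminescence. Remaining activity was calculated against DMSO and medium wells, and a sigmoidal fit gave IC50.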

[2] = molecular target: T1, AURKA (Homo sapiens, UniProt O14965); type: cell-based
T1 construct: endogenous in cells; host or cells: Jurkat cells
T1 sequence (O14965 1-403): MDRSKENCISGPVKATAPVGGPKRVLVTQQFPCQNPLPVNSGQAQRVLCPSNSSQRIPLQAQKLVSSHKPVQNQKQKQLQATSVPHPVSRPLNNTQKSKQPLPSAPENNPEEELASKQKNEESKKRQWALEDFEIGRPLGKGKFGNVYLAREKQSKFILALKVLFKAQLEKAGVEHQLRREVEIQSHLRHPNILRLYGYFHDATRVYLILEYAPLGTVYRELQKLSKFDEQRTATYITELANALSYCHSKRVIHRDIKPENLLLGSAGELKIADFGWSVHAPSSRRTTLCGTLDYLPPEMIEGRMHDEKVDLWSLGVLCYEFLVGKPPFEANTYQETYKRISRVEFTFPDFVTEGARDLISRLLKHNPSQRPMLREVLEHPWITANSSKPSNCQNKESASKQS
In short: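 AURKA degradation read by western blot: band signal, fluorescent or chemiluminescent, curve-fitted to derive DC50. Cells were Jurkat, plated at 1×10^6 cells/500 µL with compound, then lysed and blotted onto nitrocellulose, primary antibody overnight at 4°C.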

[3] = NCI-H82, H82 cells, 4000 cells/well, CellTiter-Glo, read-out: IC50 in H82 Cells
[4] = 100 nM compound, Jurkat cells, 24 h, Table 2
[5] = 1 µM compound, Jurkat cells, 24 h, Table 2
[6] = NCI-H82, read-out: IC50 in H82 Cells

Compound | IC50 [1, 3] [nM] | Percentage of AURKA Degradation Induced by 100 nM Compound in Jurkat Cells [2, 4] | Percentage of AURKA Degradation Induced by 1 µM Compound in Jurkat Cells [2, 5] | IC50 [1, 6] [nM] | Percentage of AURKA Degradation Induced by 100 nM Compound in Jurkat Cells [2] | Percentage of AURKA Degradation Induced by 1 µM Compound in Jurkat Cells [2]
CP(C)(=O)c1ccc2c(c1)C(c1c(F)cccc1F)=NCc1cnc(Nc3ccc(N4CC(CN5CCN(c6ccc(N7CCC(=O)NC7=O)cn6)CC5)C4)cc3)nc1-2 [Compound A269] | 1000 to 10000 | +++ (Degradation > 70%) | +++ (Degradation > 70%) |  |  | 
O=C1CCN(c2ccc(N3CCC(C(=O)N4CCN(C56CC(Nc7ncc8c(n7)-c7ccc(Cl)cc7C(c7c(F)cccc7F)=NC8)(C5)C6)C(=O)C4)CC3)nc2)C(=O)N1 [Compound A270] | < 1000 | +++ (Degradation > 70%) | +++ (Degradation > 70%) |  |  | 
O=C1CCN(c2ccc(N3CCC(C4CCN(c5ccc(Nc6ncc7c(n6)-c6ccc(Cl)cc6C(c6c(F)cccc6F)=NC7)cc5)CC4)CC3)nc2)C(=O)N1 [Compound A271] | < 1000 | ++ (30% < Degradation ≤ 70%) | +++ (Degradation > 70%) |  |  | 
O=C1CCN(c2ccc(N3CCC(F)(CN4CCN(C56CC(Nc7ncc8c(n7)-c7ccc(Cl)cc7C(c7c(F)cccc7F)=NC8)(C5)C6)C(=O)C4)CC3)nc2)C(=O)N1 [Compound A272] |  |  |  | < 1000 | +++ (key: +: Degradation ≤ 30%; ++: 30% < Degradation ≤ 70%; +++: Degradation > 70%) | +++ (key: +: Degradation ≤ 30%; ++: 30% < Degradation ≤ 70%; +++: Degradation > 70%)
O=C1CCN(c2ccc(N3CCC(C4CCN(C(=O)C56CC(Nc7ncc8c(n7)-c7ccc(Cl)cc7C(c7c(F)cccc7F)=NC8)(C5)C6)CC4)CC3)nc2)C(=O)N1 [Compound A273] | < 1000 | +++ (Degradation > 70%) | +++ (Degradation > 70%) |  |  | 
O=C1CCN(c2ccc(N3CC(C(=O)N4CCN(c5ccc(Nc6ncc7c(n6)-c6ccc(Cl)cc6C(c6c(F)cccc6F)=NC7)cc5)CC4)C3)nc2)C(=O)N1 [Compound A274] | < 1000 | +++ (Degradation > 70%) | +++ (Degradation > 70%) |  |  | 
O=C1CCN(c2ccc(N3CC(N4CCN(C(=O)C56CC(Nc7ncc8c(n7)-c7ccc(Cl)cc7C(c7c(F)cccc7F)=NC8)(C5)C6)CC4)C3)nc2)C(=O)N1 [Compound A275] | < 1000 | +++ (Degradation > 70%) | +++ (Degradation > 70%) |  |  | 
O=C1CCN(c2ccc(N3CC(N4CCN(Cc5ccc(Nc6ncc7c(n6)-c6ccc(Cl)cc6C(c6c(F)cccc6F)=NC7)cc5)CC4=O)C3)nc2)C(=O)N1 [Compound A276] |  |  |  | < 1000 | ++ (key: +: Degradation ≤ 30%; ++: 30% < Degradation ≤ 70%; +++: Degradation > 70%) | ++ (key: +: Degradation ≤ 30%; ++: 30% < Degradation ≤ 70%; +++: Degradation > 70%)
O=C1CCN(c2ccc(N3CCN(C(=O)C4CCN(c5ccc(Nc6ncc7c(n6)-c6ccc(Cl)cc6C(c6c(F)cccc6F)=NC7)cc5)CC4)CC3)nc2)C(=O)N1 [Compound A277] | < 1000 | +++ (Degradation > 70%) | +++ (Degradation > 70%) |  |  | 
O=C1CCN(c2ccc(N3CC(CN4CCN(C(=O)C56CC(Nc7ncc8c(n7)-c7ccc(Cl)cc7C(c7c(F)cccc7F)=NC8)(C5)C6)CC4)C3)nc2)C(=O)N1 [Compound A279] | < 1000 | +++ (Degradation > 70%) | +++ (Degradation > 70%) |  |  | 
O=C1CCN(c2ccc(N3CCC(C(=O)N4CCN(C56CC(Nc7ncc8c(n7)-c7ccc(Cl)cc7C(c7nccs7)=NC8)(C5)C6)C(=O)C4)CC3)nc2)C(=O)N1 [Compound A280] | < 1000 | +++ (Degradation > 70%) | +++ (Degradation > 70%) |  |  | 
O=C1CCN(c2ccc(N3CCN(CC4(O)CN(c5ccc(Nc6ncc7c(n6)-c6ccc(Cl)cc6C(c6c(F)cccc6F)=NC7)cc5)C4)CC3)nc2)C(=O)N1 [Compound A281] | < 1000 | +++ (Degradation > 70%) | +++ (Degradation > 70%) |  |  | 
